Here are results for 30 compounds from patent US20230167073A1 (Teijin Pharma Limited, priority 2020, published 2023).

SMILES strings stand for the structures. Bounds are passed on as bounds.

The test deals with T1, Human TRPC6 (Homo sapiens, UniProt Q9Y210).
T1 construct: expressed in transfected cells
T1 sequence (Q9Y210 1-931): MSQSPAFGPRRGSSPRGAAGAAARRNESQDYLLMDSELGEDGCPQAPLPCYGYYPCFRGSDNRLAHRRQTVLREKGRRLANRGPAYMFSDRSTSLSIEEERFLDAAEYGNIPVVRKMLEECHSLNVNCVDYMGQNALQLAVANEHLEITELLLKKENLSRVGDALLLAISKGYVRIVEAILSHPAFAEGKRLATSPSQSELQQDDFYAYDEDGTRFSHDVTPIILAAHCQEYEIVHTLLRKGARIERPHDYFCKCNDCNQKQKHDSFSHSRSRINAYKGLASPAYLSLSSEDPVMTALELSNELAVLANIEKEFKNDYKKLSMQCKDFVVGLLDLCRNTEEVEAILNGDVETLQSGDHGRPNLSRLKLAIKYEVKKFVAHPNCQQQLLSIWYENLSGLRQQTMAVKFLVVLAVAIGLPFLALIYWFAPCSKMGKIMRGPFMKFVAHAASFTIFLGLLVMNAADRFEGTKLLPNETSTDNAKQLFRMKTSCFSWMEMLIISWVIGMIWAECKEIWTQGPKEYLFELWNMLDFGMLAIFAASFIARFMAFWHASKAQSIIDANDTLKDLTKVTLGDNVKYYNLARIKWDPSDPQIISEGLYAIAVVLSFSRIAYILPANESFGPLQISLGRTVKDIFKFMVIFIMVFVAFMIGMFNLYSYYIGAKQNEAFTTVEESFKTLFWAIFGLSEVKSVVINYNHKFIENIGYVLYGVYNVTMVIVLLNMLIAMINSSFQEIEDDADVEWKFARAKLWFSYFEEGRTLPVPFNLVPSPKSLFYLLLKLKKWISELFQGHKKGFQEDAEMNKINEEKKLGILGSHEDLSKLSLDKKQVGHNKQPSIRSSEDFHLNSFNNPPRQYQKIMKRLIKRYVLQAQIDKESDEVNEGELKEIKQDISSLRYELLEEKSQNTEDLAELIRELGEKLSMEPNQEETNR
The experiment in a line: Evaluation of TRPC6 channel inhibitory activity (1), FLIPR Calcium 5 Assay Kit, OAG stimulation (Compound Nos. 1-1293). Format: cell-based. The following applies: Human TRPC6 stably-expressing cells, OAG 30 μM, FLIPR Calcium 5 Assay Kit; read-out: Inhibitory activity (pIC50 class) (converted). The essentials:
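Cells stably expressing human TRPC6, plated 24 h before, were loaded 30 min with Calcium 5 dye plus probenecid in HEPES-HBSS. Compound was added 20 min before OAG (30 μM final) and fluorescence tracked on FLIPR. Inhibition normalised to no-compound and no-compound/no-OAG wells; pIC50 from four-parameter fit, reported as +/++/+++ categories.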
Turning to `Cc1nc(Oc2cc(C#N)ccc2-c2ncc(CCN)cn2)cc(O[C@@H]2CCOC2)n1` [compound 889, 4-[5-(2-aminoethyl)pyrimidin-2-yl]-3-[2-methyl-6-[(3R)-oxolan-3-yl]oxypyrimidin-4-yl]oxybenzonitrile], the IC50 was above 1000 nM. The result for `CC(C)n1nc(C2CC2)cc1Oc1cc(C#N)ccc1-c1ncc(CCN)cn1` [compound 380, 4-[5-(2-aminoethyl)pyrimidin-2-yl]-3-(5-cyclopropyl-2-propan-2-ylpyrazol-3-yl)oxybenzonitrile] reads 10 to 1000 nM; that for `Cc1nc(NC(C)C)cc(Oc2cc(C#N)ccc2-c2ncc(CN)cn2)n1` [compound 630, 4-[5-(aminomethyl)pyrimidin-2-yl]-3-[2-methyl-6-(propan-2-ylamino)pyrimidin-4 yl]oxybenzonitrile], 10 to 1000 nM; that for `Cc1cc(Oc2cc(C#N)ccc2-c2ccc([C@H](O)CN)cn2)cc(N2CCCC2)n1` [compound 498, 4-[5-[(1S)-2-amino-1-hydroxyethyl]pyridin-2-yl]-3-(2-methyl-6-pyrrolidin-1-ylpyridin-4-yl)oxybenzonitrile], below 10 nM.

Regarding `N#Cc1ccc(-c2ncc(CCN)cn2)c(Oc2nnc(-c3ccccc3)s2)c1` [compound 706, 4-[5-(2-aminoethyl)pyrimidin-2-yl]-3-[(5-phenyl-1,3,4-thiadiazol-2-yl)oxy]benzonitrile], the IC50 was below 10 nM. As for `N#Cc1ccc(-c2ccc(CCN)cn2)c(Cn2cnc(-c3ccccc3Cl)c2)c1` [compound 1144, 4-[5-(2-aminoethyl)pyridin-2-yl]-3-[[4-(2-chlorophenyl)imidazol-1-yl]methyl]benzonitrile], the figure is below 10 nM; as for `Cn1nc(N2CCCCC2)cc1Oc1cc(C#N)ccc1-c1ccc(CC2(N)COC2)cn1` [compound 742, 4-[5-[(3-aminooxetan-3-yl)methyl]pyridin-2-yl]-3-(2-methyl-5-piperidin-1-ylpyrazol-3-yl)oxybenzonitrile], below 10 nM; as for `Cn1nc(N2CCCC2)cc1Oc1cc(F)ccc1-c1ccc(CCN)cn1` [compound 980, 2-[6-[4-fluoro-2-(2-methyl-5-pyrrolidin-1-ylpyrazol-3-yl)oxyphenyl]pyridin-3-yl]ethanamine], below 10 nM. For `Cc1nc(-c2cncc(F)c2)cn1Cc1cc(C#N)ccc1-c1ncc(CN)cn1` [compound 1192, 4-[5-(aminomethyl)pyrimidin-2-yl]-3-[[4-(5-fluoropyridin-3-yl)-2-methylimidazol-1-yl]methyl]benzonitrile], the IC50 is above 1000 nM.

For `N#Cc1ccc(-c2ccc(CCN)cn2)c(Sc2cnnc(N3CCCCC3)c2)c1` [compound 1243, 4-[5-(2-aminoethyl)pyridin-2-yl]-3-(6-piperidin-1-ylpyridazin-4-yl)sulfanylbenzonitrile], the IC50 was below 10 nM. The result for `N#Cc1ccc(-c2ncc(CN)cn2)c(Oc2nnc(N3CCC3)s2)c1` [compound 720, 4-[5-(aminomethyl)pyrimidin-2-yl]-3-[[5-(azetidin-1-yl)-1,3,4-thiadiazol-2-yl]oxy]benzonitrile] reads above 1000 nM; that for `CN(C)c1cc(Oc2cc(C#N)ccc2-c2ccc([C@H](O)CN)cn2)n(C)n1` [compound 546, 4-[5-[(1S)-2-amino-1-hydroxyethyl]pyridin-2-yl]-3-[5-(dimethylamino)-2-methylpyrazol-3-yl]oxybenzonitrile], 10 to 1000 nM. For the compound `COCc1cncn1Cc1cc(C#N)ccc1-c1ccc(CCN)cc1` [compound 1116, 4-[4-(2-aminoethyl)phenyl]-3-[[5-(methoxymethyl)imidazol-1-yl]methyl]benzonitrile], the IC50 was above 1000 nM. Regarding `N#Cc1ccc(-c2ccc(C(O)CN)cc2)c(Oc2cnnc(-c3ccccc3)c2)c1` (stereo not drawn) [Compound 82, 4-[4-(2-amino-1-hydroxyethyl)phenyl]-3-(6-phenylpyridazin-4-yl)oxybenzonitrile], the IC50 was below 10 nM. The result for `Cn1nc(-c2ccccn2)cc1Oc1cc(C#N)ccc1-c1ccc(C(O)CN)cn1` (stereo not drawn) [Compound 249, 4-[5-(2-amino-1-hydroxyethyl)pyridin-2-yl]-3-(2-methyl-5-pyridin-2-ylpyrazol-3-yl)oxybenzonitrile] reads below 10 nM; that for `N#Cc1ccc(-c2ncc(CN)cn2)c(C(=O)c2cnn(-c3ccncn3)c2)c1` [compound 1055, 4-[5-(aminomethyl)pyrimidin-2-yl]-3-(1-pyrimidin-4-ylpyrazole-4-carbonyl)benzonitrile], above 1000 nM. The result for `Cn1nc(-c2ccccc2)cc1Oc1cc(C#N)ccc1-c1cnc(CN)cn1` [Compound 290, 4-[5-(aminomethyl)pyrazin-2-yl]-3-(2-methyl-5-phenylpyrazol-3-yl)oxybenzonitrile] reads 10 to 1000 nM; that for `CC(C)Cn1cc(Cc2cc(C#N)ccc2-c2ncc(CN)cn2)cn1` [compound 1196, 4-[5-(aminomethyl)pyrimidin-2-yl]-3-[[1-(2-methylpropyl)pyrazol-4-yl]methyl]benzonitrile], 10 to 1000 nM.

With `N#Cc1ccc(-c2ncc(CN)cn2)c(Oc2cc(N3CCOCC3)cnn2)c1` [compound 535, 4-[5-(aminomethyl)pyrimidin-2-yl]-3-(5-morpholin-4-ylpyridazin-3-yl)oxybenzonitrile], the IC50 was above 1000 nM. The result for `CNC[C@H](O)c1cnn(-c2ccc(C#N)cc2Oc2cc(-c3ccccc3)nc(C)n2)c1` [Compound 231, 4-[4-[(1R)-1-hydroxy-2-(methylamino)ethyl]pyrazol-1-yl]-3-(2-methyl-6-phenylpyrimidin-4-yl)oxybenzonitrile] reads below 10 nM.

For the compound `Cc1cc(Oc2cc(C#N)ccc2-c2ccc(CCN)cn2)cc(N2CCCC2)n1` [Compound 254, 4-[5-(2-aminoethyl)pyridin-2-yl]-3-(2-methyl-6-pyrrolidin-1-ylpyridin-4-yl)oxybenzonitrile], the IC50 is below 10 nM. `Cc1cc(Oc2cc(C#N)ccc2-c2ccc([C@H](O)CN)cn2)cc(C2CCOCC2)n1` [compound 580, 4-[5-[(1S)-2-amino-1-hydroxyethyl]pyridin-2-yl]-3-[2-methyl-6-(oxan-4-yl)pyridin-4-yl]oxybenzonitrile]: the IC50 is 10 to 1000 nM.

With `CC(N)c1cnc(-c2ccc(C#N)cc2Oc2cc(-c3ccccn3)nn2C)nc1` (stereo not drawn) [compound 702, 4-[5-(1-aminoethyl)pyrimidin-2-yl]-3-(2-methyl-5-pyridin-2-ylpyrazol-3-yl)oxybenzonitrile], the IC50 was below 10 nM. As for `Cn1nc(-c2ccccc2)cc1Oc1cc(C#N)ccc1-c1ccc(C(N)C(N)=O)cn1` (stereo not drawn) [compound 516, 2-amino-2-[6-[4-cyano-2-(2-methyl-5-phenylpyrazol-3-yl)oxyphenyl]pyridin-3-yl]acetamide], the figure is above 1000 nM; as for `CN(C(=O)C1CCNCC1)c1ccc(-c2ccc(C#N)cc2Oc2cc(C3CC3)nn2C)nc1` [compound 782, N-[6-[4-cyano-2-(5-cyclopropyl-2-methylpyrazol-3-yl)oxyphenyl]pyridin-3-yl]-N-methylpiperidine-4-carboxamide], above 1000 nM.

Turning to `Cn1nc(C2CC2)cc1Oc1cc(C#N)ccc1-c1ncc(C2(N)CC2)cn1` [compound 463, 4-[5-(1-aminocyclopropyl)pyrimidin-2-yl]-3-(5-cyclopropyl-2-methylpyrazol-3-yl)oxybenzonitrile], the IC50 was above 1000 nM.

As to `Cn1nc(C2CC2)cc1Oc1cc(C#N)ccc1-c1ccc(CN2CCNCC2)cn1` [compound 779, 3-(5-cyclopropyl-2-methylpyrazol-3-yl)oxy-4-[5-(piperazin-1-ylmethyl)pyridin-2-yl]benzonitrile], the IC50 is above 1000 nM. As for `CCC(OC)c1cn(Cc2cc(C#N)ccc2-c2ncc(CCN)cn2)c(C)n1` (stereo not drawn) [compound 1142, 4-[5-(2-aminoethyl)pyrimidin-2-yl]-3-[[4-(1-methoxypropyl)-2-methylimidazol-1-yl]methyl]benzonitrile], the IC50 is 10 to 1000 nM. In the case of `N#Cc1ccc(-c2ccc(CCN)cn2)c(Oc2cnnc(N3CCOCC3)c2)c1` [Compound 89, 4-[5-(2-aminoethyl)pyridin-2-yl]-3-(6-morpholin-4-ylpyridazin-4-yl)oxybenzonitrile], the IC50 is above 1000 nM.

In the case of `N#Cc1ccc(-c2ccc(CCN)cc2)c(Oc2cnnc(-c3ccccc3F)c2)c1` [Compound 116, 4-[4-(2-aminoethyl)phenyl]-3-[6-(2-fluorophenyl)pyridazin-4-yl]oxybenzonitrile], the IC50 was 10 to 1000 nM.
